Test results published in patent USRE48059E1, “Piperazine-substituted benzothiophenes for treatment of mental disorders” (Otsuka Pharmaceutical Co., Ltd., priority 2005, dated 2020).

Molecular target: Human recombinant dopamine D2 receptor (Homo sapiens (Human), UniProt P14416)
Assay: not given
Settings: forskolin stimulation; well without test compound = 100%; CHO/DHFR(-) cells
Procedure: Partial agonistic activity on dopamine D2 receptor using D2 receptor expression cells
Partial agonistic activity on dopamine D2 receptor was evaluated by quantitatively determining cyclic AMP production inhibitory effect of a test compound in dopamine D2 receptor expression cells in which adenosine 3′,5′-cyclic monophosphate (cyclic AMP) production was induced by forskolin stimulation.
Human recombinant dopamine D2 receptor expressing Chinese hamster ovary/DHFR(−) cells were cultured in a culture medium (Iscove's Modified Dulbecco's Medium (IMDM culture medium), 10% fetal bovine serum, 50 I.U./ml penicillin, 50 μg/ml streptomycin, 200 μg/ml geneticin, 0.1 mM sodium hypoxanthine, 16 μM thymidine) at 37° C. and 5% carbon dioxide condition. Cells were seeded at 10^4 cells/well on a 96-well microtiter plate coated with poly-L-lysine and grown under the same condition for 2 days. Each well was washed with 100 μl of a culture medium (IMDM culture medium, 0.1 mM sodium hypoxanthine, 16 μM thymidine).

Chain of Human recombinant dopamine D2 receptor (P14416 whole entry): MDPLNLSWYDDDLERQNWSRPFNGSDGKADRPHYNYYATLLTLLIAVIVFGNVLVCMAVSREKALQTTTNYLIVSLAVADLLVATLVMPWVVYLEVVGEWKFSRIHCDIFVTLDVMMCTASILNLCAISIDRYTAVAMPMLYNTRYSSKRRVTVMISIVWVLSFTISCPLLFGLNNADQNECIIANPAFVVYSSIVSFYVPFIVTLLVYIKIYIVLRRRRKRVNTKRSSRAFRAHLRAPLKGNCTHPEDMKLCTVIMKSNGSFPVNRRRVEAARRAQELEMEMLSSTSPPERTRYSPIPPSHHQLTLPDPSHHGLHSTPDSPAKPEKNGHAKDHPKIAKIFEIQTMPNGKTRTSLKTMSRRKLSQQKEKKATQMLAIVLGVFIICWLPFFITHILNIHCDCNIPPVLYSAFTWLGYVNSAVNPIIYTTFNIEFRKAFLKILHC

Compound	quantity of cyclic AMP as the maximum activity
NCCc1ccc(O)c(O)c1 [dopamine]	about 10%

Test system: Serotonin (5-HT) uptake by rat brain synaptosome
Assay: Serotonin (5-HT) uptake inhibitory activity by rat brain synaptosome
Format: biochemical
Settings: test compound 300 nM; rat frontal cortex crude synaptosome; tritium labeled 5-HT 8 nM
Procedure: Measurement of Serotonin (5-HT) Uptake Inhibitory Activity of a Test Compound by Rat Brain Synaptosome
Wistar male rats were decapitated, the brain was retrieved and frontal cortex was dissected out, and it was homogenized in 0.32 M sucrose solution of a weight 20 times of the weight of the tissue using a Potter type homogenizer.
5-HT uptake reaction was performed in a volume of 200 μl using a 96-well round bottom plate and pargyline (final concentration 10 μM) and sodium ascorbate (final concentration 0.2 mg/ml) were contained in the incubation buffer upon reaction and used.
Incubation buffer (total counting), non-labeled 5-HT (final concentration 10 μM, non-specific counting) and the diluted test compound (final concentration 300 nM) were added to each well. One-tenth quantity of the final volume of the synaptosome fraction was added and after preincubated at 37° C. for 10 minutes, tritium labeled 5-HT solution (final concentration 8 nM) was added and uptake reaction was started at 37° C. The uptake time was 10 minutes and the reaction was terminated by vacuum filtration through a 96-well fiber glass filter paper plate, and after the filter paper was washed with cold normal saline, it was dried enough and Microscint0 (Perkin-Elmer) was added to the filter and remaining radioactivity on the filter was measured.

Compound	Serotonin uptake inhibitory ratio (%)(300 nM)
O=c1ccc2ccc(OCCCCN3CCN(c4cccc5sccc45)CC3)cc2[nH]1 [Example 1, 7-[4-(4-benzo[b]thiophen-4-yl-piperazin-1-yl)butoxy]-1H-quinolin-2-one]	92.4%
O=c1[nH]c2ccccc2cc1OCCN1CCN(c2cccc3sccc23)CC1 [Example 2, 3-[2-(4-benzo[b]thiophen-4-yl-piperazin-1-yl)ethoxy]-1H-quinolin-2-one]	78.8%
Cc1cc(=O)[nH]c2cc(OCCCN3CCN(c4cccc5sccc45)CC3)ccc12 [Example 3, 7-[3-(4-benzo[b]thiophen-4-yl-piperazin-1-yl)propoxy]-4-methyl-1H-quinolin-2-one]	84.8%
Cc1cc(=O)[nH]c2cc(OCCCCN3CCN(c4cccc5sccc45)CC3)ccc12 [Example 4, 7-[4-(4-benzo[b]thiophen-4-yl-piperazin-1-yl)butoxy]-4-methyl-1H-quinolin-2-one]	91.0%
Cc1cc2ccc(OCCCN3CCN(c4cccc5sccc45)CC3)cc2[nH]c1=O [Example 5, 7-[3-(4-benzo[b]thiophen-4-yl-piperazin-1-yl)propoxy]-3-methyl-1H-quinolin-2-one]	89.1%
Cc1cc2ccc(OCCCCN3CCN(c4cccc5sccc45)CC3)cc2[nH]c1=O [Example 6, 7-[4-(4-benzo[b]thiophen-4-yl-piperazin-1-yl)butoxy]-3-methyl-1H-quinolin-2-one]	91.3%
O=c1ccc2ccc(OCCCN3CCN(c4cccc5sccc45)CC3)cc2[nH]1 [Example 7, 7-[3-(4-benzo[b]thiophen-4-yl-piperazin-1-yl)propoxy]-1H-quinolin-2-one]	91.0%
O=C1CCc2ccc(OCCCN3CCN(c4cccc5sccc45)CC3)cc2N1 [Example 10, 7-[3-(4-benzo[b]thiophen-4-yl-piperazin-1-yl)propoxy]-3,4-dihydro-1H-quinolin-2-one]	92.6%
O=C1CCc2ccc(OC/C=C\CN3CCN(c4cccc5sccc45)CC3)cc2N1 [Example 13, 7-[4-(4-benzo[b]thiophen-4-yl-piperazin-1-yl)-(Z)-2-butenyloxy]-3,4-dihydro-1H-quinolin-2-one]	77.0%
O=C1CCc2ccc(OC/C=C/CN3CCN(c4cccc5sccc45)CC3)cc2N1 [Example 15, 7-[4-(4-benzo[b]thiophen-4-yl-piperazin-1-yl)-(E)-2-butenyloxy]-3,4-dihydro-1H-quinolin-2-one]	87.2%
CC1CC(=O)Nc2cc(OCCCCN3CCN(c4cccc5sccc45)CC3)ccc21 (stereo not shown) [Example 16, 7-[4-(4-benzo[b]thiophen-4-yl-piperazin-1-yl)butoxy]-4-methyl-3,4-dihydro-1H-quinolin-2-one]	86.7%
O=C1CCc2cc(OCCCCN3CCN(c4cccc5sccc45)CC3)ccc2N1 [Example 20, 6-[4-(4-benzo[b]thiophen-4-yl-piperazin-1-yl)butoxy]-3,4-dihydro-1H-quinolin-2-one]	92.8%
O=C1c2ccccc2CCN1CCCCCN1CCN(c2cccc3sccc23)CC1 [Example 24, 2-[5-(4-benzo[b]thiophen-4-yl-piperazin-1-yl)pentyl]-3,4-dihydro-2H-isoquinolin-1-one]	97.5%
O=C1NCCc2cc(OCCCN3CCN(c4cccc5sccc45)CC3)ccc21 [Example 25, 6-[3-(4-benzo[b]thiophen-4-yl-piperazin-1-yl)propoxy]-3,4-dihydro-2H-isoquinolin-1-one]	91.9%
CN1CCc2cc(OCCCN3CCN(c4cccc5sccc45)CC3)ccc2C1=O [Example 26, 6-[3-(4-benzo[b]thiophen-4-yl-piperazin-1-yl)propoxy]-2-methyl-3,4-dihydro-2H-isoquinolin-1-one]	92.0%
CCN1CCc2cc(OCCCN3CCN(c4cccc5sccc45)CC3)ccc2C1=O [Example 27, 6-[3-(4-benzo[b]thiophen-4-yl-piperazin-1-yl)propoxy]-2-ethyl-3,4-dihydro-2H-isoquinolin-1-one]	94.0%
O=c1c2ccccc2ccn1CCCCN1CCN(c2cccc3sccc23)CC1 [Example 34, 2-[4-(4-benzo[b]thiophen-4-yl-piperazin-1-yl)butyl]-2H-isoquinolin-1-one]	94.2%
O=c1[nH]ccc2cc(OCCCN3CCN(c4cccc5sccc45)CC3)ccc12 [Example 40, 6-[3-(4-benzo[b]thiophen-4-yl-piperazin-1-yl)propoxy]-2H-isoquinolin-1-one]	91.6%
